The source of these data is US8404898B2, “Integrated process for the preparation of polybenzimidazole precursors” (E I du Pont de Nemours and Company, priority 2008, dated 2013).

A short description of the data set: solubility of TAT salt in water. It counts as physicochemical. The following applies: water at 25° C. How it is done:
The reaction mixture containing the precipitated TAT salt is then cooled to about 5° C. to about 15° C. and stirred, then filtered. The TAT salt is then washed 44. […] Using an agitated filter unit during the wash procedures can allow for a reduction of the wash volumes. Under such circumstances, using small amounts of cold (e.g., about 5° C.) water instead of the aqueous acid would be effective; cold water would be used because of lower solubility of the TAT salt in cold water versus, e.g., room temperature. For example, the solubility of TAT.4HCl in water at 25° C. is about 16 wt %.

As for `Cc1c(N)c(N)cc(N)c1N` [TAT.4HCl, 2,3,5,6-tetraminotoluene], the solubility in water entry is “about 16 wt %”.
